For test [1], the system named is MIA PaCa-2 cell line. Nature of the test: citotoxicity on human pancreas cancer MIA PaCa-2 cell line. The format is cell-based. An excerpt:
The relevance of such an effect on cell proliferation has been then evaluated by studying the citotoxicity of the above-mentioned compounds on the of human pancreas cancer MIA PaCa-2 cell line following the method described by R. Danesi et. al., Mol. Pharmacol., 47, 1106, 1995.
(§1) The citotoxicity of the geranylgeranyl-derivatives BAL9504 and BAL9503 has also been evaluated on the normal diploid fibroblast cells MRC-5 from human lung following the method described by R. Danesi et. al., Mol. Pharmacol., 47, 1106, 1995. Table 2 reports the concentration of the compounds under study that produces 50% growth inhibition (IC50) in MRC-5 and MIA PaCa-2 cell lines together with the sensibility index, that is the ratio between the IC50 in MRC-5 and MIA PaCa-2 cells.

Test [2] concerns MIA PaCa-2 cell line. Nature of the test: apoptosis in MIA PaCa-2 cells (ELISA of fragmented DNA). Conditions: 1-75 μM; vs non-treated cells. It is filed as cell-based, human. The text has this:
Apoptosis consists in enzymatic digestion of nuclear DNA by endogenous nucleases within the cell and it occurs when cell replication is impaired by agents that block cell cycle progression towards mitosis.
For orientation: ELISA stands for enzyme-linked immunosorbent assay.

A further test concerns p21rap1. As to the kind of experiment: inhibition of p21rap1 geranylgeranylation in a malignant tumoral human cell line (electrophoresis, PVDF membrane, specific polyclonal antibody). It is filed as cell-based. Conditions: 75 μM; 24 hours. The procedure: The ability of the compounds according to the present invention of inhibiting the protein geranylgeranylation has been evaluated by means of an in vitro test on a malignant tumoral human cell line which has been treated with the following geranylgeranyl-derivatives:
The cells have been treated with increasing amounts of the geranylgeranyl derivatives BAL9504, BAL9505, BAL9603, BAL9605, BAL9608, BAL9609, BAL9610, BAL9611, BAL9613, BAL9503, BAL9614, (1-75 μM) and, after 24 hours, they have been collected and solubilized in a lysis solution containing non-ionic detergents. The soluble fraction has been collected by centrifugation and proteins separated by means of acrylamide gel electrophoresis and subsequently transferred onto a polyvinylidene fluoride (PVDF) membrane.
The presence of the geranylgeranylated protein p21rap1 has been then evidenced by means of a specific polyclonal antibody followed by chemiluminescent detection by means of a secondary antibody linked to alkaline phosphatase as previously described (M. A. Mansfield, FASEB J., S, A1428, 1994).

The test system of test [3] is normal diploid fibroblast cells MRC-5. As to the kind of experiment: citotoxicity on normal diploid fibroblast cells MRC-5 from human lung. The format is cell-based. To be noted: Table 2; for IC50: Homo sapiens, MRC5, MRC-5, read-out: IC50 (50% growth inhibition); for Sensibility Index (ratio between the IC50 in MRC-5 and MIA PaCa-2 cells): IC50 MRC-5 / IC50 MIA PaCa-2.
From the text: as §1

Setting [4] is: Table 1, read-out: IC50 (the concentration that produces 50% reduction in cell growth).
Setting [5] is: Table 2, read-out: IC50 (50% growth inhibition).

Structures can show the parent of a compound that is named as a salt. Where two headings read alike, the source gives them in different places. Where only a bound is given, the exact number is not on record here.

Take `CCC(CC)(P(=O)(O)O)P(=O)(O)CC/C=C(\C)CC/C=C(\C)CC/C=C(\C)CCC=C(C)C` [BAL9611, tripotassium salt of (E,E,E)-1-ethyl-1-[(4,8,12,16-tetramethyl-3,7,11,15-heptadecatetraenyl)hydroxyphosphoryl]propylphosphonic acid]: the IC50 with MIA PaCa-2 cell line [1] (setting [4]) is 1.5 µM. Also, the “induction of death for apoptosis” value in the test with MIA PaCa-2 cell line [2] is “induce death for apoptosis”.

As for `CC(C)=CCC/C(C)=C/CC/C(C)=C/CC/C(C)=C/COC(=O)NS(N)(=O)=O` [BAL9503, (E,E,E)-O-(3,7,11,15-tetramethyl-2,6,10,14-hexadecatetraenyl)-N-(aminosulfonyl)urethane], the “amount of the non-isoprenylated protein relative to the isoprenylated one (p21rap1)” value in the test on p21rap1 is listed as “equal to that of the isoprenylated one”. For the same compound, the IC50 in the test on MIA PaCa-2 cell line [1] (setting [4]) was determined as 10.5 µM; with MIA PaCa-2 cell line [1] (setting [5]) it was 10.5 µM; in test [3] it was 256 µM. Moreover, the “Sensibility Index (ratio between the IC50 in MRC-5 and MIA PaCa-2 cells)” value in test [3] is reported as 24.4. In addition, the “induction of death for apoptosis” value with MIA PaCa-2 cell line [2] is “induce death for apoptosis”.

As for `CC(C)=CCC/C(C)=C/CC/C(C)=C/CC/C(C)=C/CNC(=O)CP(=O)(O)O` [BAL9605, dipotassium salt of (E,E,E)-[2-oxo-2-[(3,7,11,15-tetramethyl-2,6,10,14-hexadecatetraenyl)amino]ethyl]phosphonic acid], in the test with MIA PaCa-2 cell line [1] (setting [4]), the IC50 turned out to be 7.7 µM. For the same compound, the “induction of death for apoptosis” value with MIA PaCa-2 cell line [2] is given as “induce death for apoptosis”.

For the compound `CCOP(=O)(O)CC(=O)NOC/C=C(\C)CC/C=C(\C)CC/C=C(\C)CCC=C(C)C` [BAL9505, monosodium salt of the monoethyl-ester of (E,E,E)-{2-oxo-2[[(3,7,11,15-tetramethyl-2,6,10,14-hexadecatetraenyl)oxy]amino]ethyl}phosphonic acid], in the test with p21rap1, the “amount of the non-isoprenylated protein relative to the isoprenylated one (p21rap1)” value is “equal to that of the isoprenylated one”. In addition, in the test on MIA PaCa-2 cell line [1] (setting [4]), the IC50 was greater than 30 µM.

With `CC(C)=CCC/C(C)=C/CC/C(C)=C/CC/C(C)=C/CONC(=O)CP(=O)(O)O` [BAL9504, dipotassium salt of (E,E,E)-{2-oxo-2-[[(3,7,11,15-tetramethyl-2,6,10,14-hexadecatetraenyl)oxy]amino]ethyl}phosphonic acid], the “amount of the non-isoprenylated protein relative to the isoprenylated one (p21rap1)” value in the test on p21rap1 is “equal to that of the isoprenylated one”. Also, the IC50 with MIA PaCa-2 cell line [1] (setting [4]) was found to be 2.1 µM; in the test on MIA PaCa-2 cell line [1] (setting [5]), 2.1 µM; in test [3] it was 54.6 µM. In addition, in test [3], the “Sensibility Index (ratio between the IC50 in MRC-5 and MIA PaCa-2 cells)” value is reported as 26. In addition, the “induction of death for apoptosis” value in the test on MIA PaCa-2 cell line [2] is recorded as “induce death for apoptosis”.

As for `CC(C)=CCC/C(C)=C/CC/C(C)=C/CC/C(C)=C/CCP(=O)(O)C(C)(C)P(=O)(O)O` [BAL9610, tripotassium salt of (E,E,E)-1-methyl-1[(4,8,12,16-tetramethyl-3,7,11,15-heptadecatetraenyl)hydroxyphosphoryl]ethylphosphonic acid], the IC50 in the test with MIA PaCa-2 cell line [1] (setting [4]) was greater than 30 µM.

Consider `CC(C)=CCC/C(C)=C/CC/C(C)=C/CC/C(C)=C/CONS(N)(=O)=O` [BAL9614, (E,E,E)-1-[(aminosulfonyl)aminoxy]-3,7,11,15-tetramethyl-2,6,10,14-hexadecatetraene], for which the IC50 with MIA PaCa-2 cell line [1] (setting [4]) is 11.9 µM.

On to `CC(C)=CCC/C(C)=C/CC/C(C)=C/CC/C(C)=C/CONC(=O)CCP(=O)(O)O` [BAL9603, dipotassium salt of (E,E,E)-{3-oxo-3-[[(3,7,11,15-tetramethyl-2,6,10,14-hexadecatetraenyl)oxy]amino]propyl}phosphonic acid], for which, in the test on MIA PaCa-2 cell line [1] (setting [4]), the IC50 was greater than 30 µM.

For `CC(C)=CCC/C(C)=C/CC/C(C)=C/CC/C(C)=C/CNC(=O)CCP(=O)(O)O` [BAL9608, dipotassium salt of (E,E,E)-[3-oxo-3-[(3,7,11,15-tetramethyl-2,6,10,14-hexadecatetraenyl)amino]propyl]phosphonic acid], the IC50 in the test with MIA PaCa-2 cell line [1] (setting [4]) was 16.7 µM.

Consider `CC(C)=CCC/C(C)=C/CC/C(C)=C/CC/C(C)=C/CCP(=O)(O)CP(=O)(O)O` [BAL9609, tripotassium salt of (E,E,E)-[[(4,8,12,16-tetramethyl-3,7,11,15-heptadecatetraenyl)hydroxyphosphoryl]methyl]phosphonic acid], for which, in the test with MIA PaCa-2 cell line [1] (setting [4]), the IC50 was determined as 3.5 µM. For the same compound, the “induction of death for apoptosis” value with MIA PaCa-2 cell line [2] is reported as “induce death for apoptosis”.

For `CC(C)=CCC/C(C)=C/CC/C(C)=C/CC/C(C)=C/CCP(=O)(O)O` [BAL9613, dipotassium salt of (E,E,E)-(4,8,12,16-tetramethyl-3,7,11,15-heptadecatetraenyl)phosphonic acid], in the test with MIA PaCa-2 cell line [1] (setting [4]), the IC50 was greater than 30 µM.

The record behind these values is patent US6242433A, “Geranylgeranyl-derivatives, process for the preparation thereof and related pharmaceutical compositions” (Laboratori Baldacci SpA, priority 1995, dated 2001).
